Experimental data as given in patent publication US20260308145A1, “CDK2 INHIBITORS AND METHODS OF USING SAME” (Shenzhen lonova Life Science Co., Ltd., priority 2023, published 2026).

How the values were obtained:
Format in all cases: biochemical
CDK1/cyclinB1 = target: T1, CDK1/cyclinB1 (Homo sapiens, UniProt P06493); assay: Cyclin-dependent kinase activity assay (continuous ATP coupling assay), CDK1/cyclinB1; details: CDK1/cyclinB1 10 nM, ATP 200 μM, Histone1 copeptide 100 μM, 15 min preincubation, pH 7.5, 1% DMSO
T1 construct: purchased Carna Biosciences 04-102
T1 sequence (P06493 whole entry): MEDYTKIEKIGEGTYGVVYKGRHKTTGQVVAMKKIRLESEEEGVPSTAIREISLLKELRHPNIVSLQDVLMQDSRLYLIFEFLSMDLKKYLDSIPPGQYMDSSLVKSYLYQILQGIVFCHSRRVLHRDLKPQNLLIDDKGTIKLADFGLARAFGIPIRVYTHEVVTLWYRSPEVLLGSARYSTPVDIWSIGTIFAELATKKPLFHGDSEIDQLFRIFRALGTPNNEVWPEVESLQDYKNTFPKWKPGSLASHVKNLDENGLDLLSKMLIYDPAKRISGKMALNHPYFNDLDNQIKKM
T1 sequence (P14635 whole entry partner): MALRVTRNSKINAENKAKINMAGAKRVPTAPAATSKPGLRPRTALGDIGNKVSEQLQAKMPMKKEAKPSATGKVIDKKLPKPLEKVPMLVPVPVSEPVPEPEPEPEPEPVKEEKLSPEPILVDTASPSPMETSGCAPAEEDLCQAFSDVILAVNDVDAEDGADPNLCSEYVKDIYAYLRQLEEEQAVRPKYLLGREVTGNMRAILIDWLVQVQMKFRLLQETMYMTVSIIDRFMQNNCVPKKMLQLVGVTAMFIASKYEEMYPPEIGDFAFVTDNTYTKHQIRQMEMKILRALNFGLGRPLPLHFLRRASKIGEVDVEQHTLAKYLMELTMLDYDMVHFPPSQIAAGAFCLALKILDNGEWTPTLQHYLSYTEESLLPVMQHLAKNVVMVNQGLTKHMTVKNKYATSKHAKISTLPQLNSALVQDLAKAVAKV
Method: (§1) Cyclin-dependent kinase activity assay was measured by continuous ATP coupling assay in which ADP generated by kinase catalyzed phosphorylation was converted back to ATP by consuming phosphoenolpyruvate (PEP) and NADH catalyzed by pyruvate kinase/lactate dehydrogenase (PK/LDH). The assay compositions (see, Table 1) consist of one of the kinases, including CDK1/cyclinB1, CDK2/cyclinE1, CDK4/cyclinD3, and CDK6/cyclinD3 at the designated concentration, ATP at the corresponding Km of the kinase, copeptide and the ATP coupling system of PEP, NADH and PK/LDH. The assay was conducted in a reaction buffer of 20 mM Tris (pH 7.5) with 50 mM NaCl, 0.5 mM DTT and 0.04% BSA, and results were monitored continuously by fluorescence decrease of NADH with excitation at 340 nm and emission at 460 nm. Linear regression of the resulting reaction time traces gave reaction velocities.
(§2) For inhibition assay, compounds were first serial diluted in a 1:3 ratio from 10 μM to 0.05 nM using 10× reaction buffer. One of the CDK kinase was then introduced to compounds solution and incubated for 15 min. Finally, the compositions of ATP coupling system were introduced to the resulting solution to initiate the reaction. The final reaction mixture was in 1× reaction assay buffer with 1% DMSO. The half-maximal inhibition concentrations (IC50) for compounds were determined by fitting the plots of reaction velocity against compound concentration with 4-variable IC50 equation. The inhibition constants (Ki) were determined by fitting the same plots with quadratic/Morrison equation. Data were analyzed using commercially available software Graphpad Prism.
(§3) Exemplary results are presented as calculated IC50 values. • A: IC50≤10 nM • B: IC50>10 nM and IC50<100 nM • C: IC50≥100 nM

CDK2/cyclinE1 = target: T2, CDK2/cyclinE1 (Homo sapiens, UniProt P24941); assay: Cyclin-dependent kinase activity assay (continuous ATP coupling assay), CDK2/cyclinE1; details: CDK2/cyclinE1 5 nM, ATP 300 μM, Rb copeptide 100 μM, 15 min preincubation, pH 7.5, 1% DMSO
T2 construct: purchased Carna Biosciences 04-165
Method: as §1, §2, §3

CDK4/cyclinD3 = target: T3, CDK4/cyclinD3 (Homo sapiens, UniProt P11802); assay: Cyclin-dependent kinase activity assay (continuous ATP coupling assay), CDK4/cyclinD3; details: CDK4/cyclinD3 60 nM, ATP 500 μM, Rb copeptide 500 μM, 15 min preincubation, pH 7.5, 1% DMSO
T3 construct: purchased Carna Biosciences 04-105
T3 sequence (P11802 whole entry): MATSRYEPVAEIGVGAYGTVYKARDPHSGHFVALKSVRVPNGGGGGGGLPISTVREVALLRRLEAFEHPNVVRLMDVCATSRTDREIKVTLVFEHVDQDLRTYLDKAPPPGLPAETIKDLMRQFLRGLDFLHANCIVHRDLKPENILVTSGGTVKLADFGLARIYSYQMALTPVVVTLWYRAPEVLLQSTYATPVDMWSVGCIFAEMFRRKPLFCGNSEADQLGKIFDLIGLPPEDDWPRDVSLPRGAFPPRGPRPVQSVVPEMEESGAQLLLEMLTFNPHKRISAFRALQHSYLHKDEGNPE
T3 sequence (P30281 whole entry partner): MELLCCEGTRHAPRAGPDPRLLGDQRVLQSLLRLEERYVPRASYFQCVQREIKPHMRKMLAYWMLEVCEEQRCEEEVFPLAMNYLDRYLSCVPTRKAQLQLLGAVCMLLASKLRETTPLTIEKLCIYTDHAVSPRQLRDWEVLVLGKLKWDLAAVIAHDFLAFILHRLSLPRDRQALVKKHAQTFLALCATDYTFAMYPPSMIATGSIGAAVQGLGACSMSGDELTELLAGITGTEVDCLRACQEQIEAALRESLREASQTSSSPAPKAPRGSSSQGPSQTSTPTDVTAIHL
Method: as §1, §2, §3

CDK6/cyclinD3 = target: T4, CDK6/cyclinD3 (Homo sapiens, UniProt Q00534); assay: Cyclin-dependent kinase activity assay (continuous ATP coupling assay), CDK6/cyclinD3; details: CDK6/cyclinD3 25 nM, ATP 500 μM, Rb copeptide 500 μM, 15 min preincubation, pH 7.5, 1% DMSO
T4 construct: purchased Carna Biosciences 04-107
T4 sequence (Q00534 whole entry): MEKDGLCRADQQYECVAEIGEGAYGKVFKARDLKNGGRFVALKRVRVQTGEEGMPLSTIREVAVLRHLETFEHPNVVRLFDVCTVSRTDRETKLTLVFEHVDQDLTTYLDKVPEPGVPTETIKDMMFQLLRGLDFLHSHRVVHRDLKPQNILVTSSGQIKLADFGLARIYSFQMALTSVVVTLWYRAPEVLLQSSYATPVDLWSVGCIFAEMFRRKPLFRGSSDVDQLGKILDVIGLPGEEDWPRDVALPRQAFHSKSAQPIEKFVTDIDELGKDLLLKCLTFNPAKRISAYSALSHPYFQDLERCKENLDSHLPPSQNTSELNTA
T4 sequence (P30281 whole entry partner): as the sequence (P30281 whole entry partner) above
Method: as §1, §2, §3

IC50 (CDK1/cyclinB1) [nM] | IC50 (CDK2/cyclinE1) [nM] | IC50 (CDK4/cyclinD3) [nM] | IC50 (CDK6/cyclinD3) [nM] | Structure (SMILES)
≥ 100 | ≥ 100 | ≥ 100 | ≥ 100 | CCS(=O)(=O)N1C2CCC1CC(Nc1ncc(C(F)(F)F)c(-n3cccn3)n1)C2 (stereo not drawn) [Example 31]
≥ 100 | ≥ 100 | ≥ 100 | ≥ 100 | CCS(=O)(=O)N1CC2(CC(Nc3ncc(C(F)(F)F)c(-n4cccn4)n3)C2)C1 [Example 32, 2-(ethyldioxo-λ6-sulfanyl)-6-{[4-(pyrazol-1-yl)-5-(trifluoromethyl)pyrimidin-2-yl]amino}-2-azaspiro[3.3]heptane]
≥ 100 | ≥ 100 | ≥ 100 | ≥ 100 | CN1CCC(N2CCN(c3ccc(Nc4ncc(C(F)(F)F)c(-n5cccn5)n4)cc3)CC2)CC1 [Example 33]
≥ 100 | ≥ 100 | ≥ 100 | ≥ 100 | FC(F)(F)c1cnc(Nc2ccc(S(F)(F)(F)(F)F)cc2)nc1-n1cccn1 [Example 34]
≥ 100 | ≤ 10 | 10 to 100 | ≥ 100 | CN1CCC(NS(=O)(=O)c2ccc(Nc3ncc(C(F)(F)F)c(-n4cccn4)n3)cc2)CC1 [Example 35]
10 to 100 | ≤ 10 | ≥ 100 | ≥ 100 | O=S(=O)(NCCO)c1ccc(Nc2ncc(C(F)(F)F)c(-n3cccn3)n2)cc1 [Example 36, 4-((4-(1H-pyrazol-1-yl)-5-(trifluoromethyl)pyrimidin-2-yl)amino)-N-(2-hydroxyethyl) benzene sulfonamide]
≥ 100 | ≤ 10 | 10 to 100 | 10 to 100 | O=S(=O)(c1ccc(Nc2ncc(C(F)(F)F)c(-n3cccn3)n2)cc1)N1CCNCC1 [Example 37]
≥ 100 | 10 to 100 | ≥ 100 | ≥ 100 | CN1CCN(S(=O)(=O)c2ccc(Nc3ncc(C(F)(F)F)c(-n4cccn4)n3)cc2)CC1 [Example 38]
≥ 100 | ≥ 100 | ≥ 100 | ≥ 100 | O=C1NCc2cc(Nc3ncc(C(F)(F)F)c(-n4cccn4)n3)ccc21 [Example 39]
≥ 100 | ≤ 10 | ≥ 100 | ≥ 100 | O=S(=O)(NC1COC1)c1ccc(Nc2ncc(C(F)(F)F)c(-n3cccn3)n2)cc1 [Example 40]
≥ 100 | 10 to 100 | ≥ 100 | ≥ 100 | O=S(=O)(NC1CC(F)(F)C1)c1ccc(Nc2ncc(C(F)(F)F)c(-n3cccn3)n2)cc1 [Example 41]
≥ 100 | ≥ 100 | ≥ 100 | ≥ 100 | O=S1(=O)NCc2cc(Nc3ncc(C(F)(F)F)c(-n4cccn4)n3)ccc21 [Example 42, 1,1-dioxo-N-[4-pyrazol-1-yl-5-(trifluoromethyl)pyrimidin-2-yl]-2,3-dihydro-1,2-benzothiazol-5-amine]
10 to 100 | ≤ 10 | 10 to 100 | 10 to 100 | CN(C)CCNS(=O)(=O)c1ccc(Nc2ncc(C(F)(F)F)c(-n3cccn3)n2)cc1 [Example 43]
≥ 100 | 10 to 100 | ≥ 100 | ≥ 100 | CNS(=O)(=O)c1ccc(Nc2ncc(C(F)(F)F)c(-n3cc(Br)cn3)n2)cc1 [Example 44]
≥ 100 | 10 to 100 | ≥ 100 | ≥ 100 | CNS(=O)(=O)c1ccc(Nc2ncc(C(F)(F)F)c(-n3cc(F)cn3)n2)cc1 [Example 45]
≥ 100 | ≤ 10 | 10 to 100 | ≥ 100 | CNS(=O)(=O)c1ccc(Nc2ncc(C(F)(F)F)c(-n3cc(C)cn3)n2)cc1 [Example 46]
10 to 100 | 10 to 100 | ≥ 100 | ≥ 100 | CNS(=O)(=O)c1ccc(Nc2ncc(C(F)(F)F)c(-n3cc(C(F)(F)F)cn3)n2)cc1 [Example 47]
≥ 100 | 10 to 100 | ≤ 10 | 10 to 100 | CNS(=O)(=O)c1ccc(Nc2ncc(C(F)(F)F)c(-n3cc(CC(C)C)cn3)n2)cc1 [Example 48]
